From patent US10857234B2, “Carbonic anhydrase IX inhibitor conjugates and uses thereof” (Endocyte, Inc., priority 2016, dated 2020) come the findings set out here.

The target in test [1] is T1, CA IX (Homo sapiens, UniProt Q16790).
T1 construct: endogenous in cells; host or cells: HT29 cells under hypoxia (1.3% O2)
Briefly: CA IX competitive binding assay (pH 6.8 vs. 7.4 buffers + Zn2+). Conditions: HT29 cells, 2 nM 125I-EC2674, 2 hr, 37° C. The protocol:
HT29 cells were seeded into 24-well plates at 0.5×10^6 cells per well in McCoy's 5A medium containing 10% fetal bovine serum (FBS) and were allowed to attach for 48 h in an incubator with an atmosphere of 5% CO2/95% air and 37° C. The evening prior to the binding assay, cells were placed in a Hypoxylab workstation set at 10 mm Hg (1.3% O2), 5% CO2, and 37° C. (hypoxic conditions). A single concentration of ^125I-CAIX radioligand was used (2 nM). Serial dilutions of competitors (EC2674 and EC2711) were prepared in McCoy's 5A medium/10% FBS. Binding solutions (500 μL) containing the radioligand and competitor dilutions were placed on the cells, and cells were incubated in the Hypoxylab workstation for 2 h under hypoxic conditions. Cells were then removed from the Hypoxylab and were washed 3 times with ice-cold PBS, pH 7.4. Cells were solubilized with 500 μL of 0.1N NaOH/0.1% Triton X-100. Cell lysates (450 μL) were counted in a Wizard2 gamma counter (Perkin Elmer). […]
Following the procedure for the previous competitive binding assay (Example 22), the CAIX Competitive Binding Assay (pH 6.8 vs. 7.4 Buffers+Zn^2+) was carried out with the following modifications from Example 22. […] Only the homologous cold-iodine labeled CAIX ligand, EC2674, was assessed for competitive binding.

Test [2] deals with T1, CA IX. Briefly: CAIX competitive binding assay. Here is the method:
HT29 cells were seeded into 24-well plates at 0.5×10^6 cells per well in McCoy's 5A medium containing 10% fetal bovine serum (FBS) and were allowed to attach for 48 h in an incubator with an atmosphere of 5% CO2/95% air and 37° C. The evening prior to the binding assay, cells were placed in a Hypoxylab workstation set at 10 mm Hg (1.3% O2), 5% CO2, and 37° C. (hypoxic conditions). A single concentration of ^125I-CAIX radioligand was used (2 nM). Serial dilutions of competitors (EC2674 and EC2711) were prepared in McCoy's 5A medium/10% FBS. Binding solutions (500 μL) containing the radioligand and competitor dilutions were placed on the cells, and cells were incubated in the Hypoxylab workstation for 2 h under hypoxic conditions. Cells were then removed from the Hypoxylab and were washed 3 times with ice-cold PBS, pH 7.4. Cells were solubilized with 500 μL of 0.1N NaOH/0.1% Triton X-100. Cell lysates (450 μL) were counted in a Wizard2 gamma counter (Perkin Elmer). CPM values for each competitor concentration were normalized to values for radioligand binding in the absence of competitor.

By IC50 is commonly meant the midpoint of a concentration-inhibition curve.

On to `NS(=O)(=O)c1ccc(NC(=O)CN(CCN(CC(=O)Nc2ccc(S(N)(=O)=O)cc2)CC(=O)N[C@@H](CNC(=O)CCc2cc(I)c(O)c(I)c2)C(=O)O)CC(=O)O)cc1` [EC2674], for which the 50% inhibitory concentration (IC50) came out at 62.5 nM in test [1] (1.3% O2, pH 6.8 buffer (20 mM BES, 140 mM NaCl, 1 mM ZnSO4)); 66.5 nM in test [1] (1.3% O2, pH 7.4 buffer (20 mM Tris, 140 mM NaCl, 1 mM ZnSO4)); 852 nM in test [2] (HT29 cells, 2 nM 125I-EC2674, 2 hr, 37° C., 1.3% O2, McCoy's Medium+10% FBS, read-out: IC50).

In test [2], `CCCC(=O)OCN(C(=O)[C@@H](NC(=O)[C@H]1CCCCN1C)C(C)CC)[C@H](C[C@@H](OC(C)=O)c1nc(C(=O)N[C@@H](Cc2ccc(O)cc2)C[C@H](C)C(=O)NNC(=O)OCCSSC[C@H](NC(=O)[C@H](CC(=O)O)NC(=O)[C@H](CC(=O)O)NC(=O)[C@H](CC(=O)O)NC(=O)CN(CCN(CC(=O)O)CC(=O)Nc2ccc(S(N)(=O)=O)cc2)CC(=O)Nc2ccc(S(N)(=O)=O)cc2)C(=O)O)cs1)C(C)C` (stereo partly shown) [EC2711] yielded a half-inhibitory concentration (IC50) of 9 nM.
